Data reported in PMC3673949, “Small Molecule R1498 as a Well-Tolerated and Orally Active Kinase Inhibitor for Hepatocellular Carcinoma and Gastric Cancer Treatment via Targeting Angiogenesis and Mitosis Pathways” (PLoS ONE, 2013).
Values joined by “and” are separate entries in the source; they are usually repeats but may differ in a detail not shown here. Equal values may be shown once. Read-outs that look alike come from different tables or passages of the source.

Key:
[1] = tested on: gastric cancer cell lines; assay: Cell proliferation assay (CCK-8, 72 h); assay type: cell-based; conditions: Homo sapiens, gastric cancer cell line panel, read-out: overall mean IC50
Protocol: (§1) Each cell line was seeded in a 96-well tissue culture plate (Corning, NY) at a predetermined density in 180 µL complete medium, attached overnight and treated by compound for another 72 h. Then the medium was discarded and replaced with 10% CCK-8 (Dojindo, Kumamoto, Japan) in complete medium, then incubated the plates for another 2 h. The OD450 was measured with SpectraMAX 190 spectrophotometer (MDS, Sunnyvale, CA). A background absorbance of ODblank was subtracted from all wells.

[2] = tested on: hepatocellular carcinoma cell lines; assay: Cell proliferation assay (CCK-8, 72 h); assay type: cell-based; conditions: Homo sapiens, hepatocellular carcinoma cell line panel, read-out: overall mean IC50
Protocol: as §1

[3] = tested on: nasopharyngeal carcinoma cell lines; assay: Cell proliferation assay (CCK-8, 72 h); assay type: cell-based; conditions: Homo sapiens, nasopharyngeal carcinoma cell line panel, read-out: overall mean IC50
Protocol: as §1

phospho-histone H3 (S10) = assay: Immunofluorescence / western blot of Aurora B activity marker in SGC-7901; assay type: cell-based, human
Protocol: Cell lysate was prepared in RIPA buffer and quantified by the bicinchoninic acid (BCA) method (Pierce, Rockford, IL). Thirty micrograms of protein per sample was loaded onto a 4∼12% NuPAGE® Novex SDS gel (Invitrogen). The protein was transferred by an iBlot® dry blotting device (Invitrogen) onto nitrocellulose membranes. After blocking nonspecific binding with TBS/Tween20 (0.1%) (TBS/T) containing 5% non-fat milk for 1 h at room temperature, the membrane was incubated in phospho-Aurora A (Thr288) (C39D8) rabbit monoclonal antibody (Cell Signaling Technology, CST #3079, Beverly, MA) or phospho-Histone H3 (Ser10) rabbit polyclonal antibody (CST#9701) (1∶1000 in TBS/T containing 3% bovine serum albumin (BSA), and gently shaken at 4°C overnight. The membrane was washed with TBS/T three times to remove the unbound antibody, then incubated with the secondary antibody (HRP-conjugated goat anti-mouse IgG or goat anti-rabbit IgG, 1∶10000, KangChen Biotech, Shanghai, China) for 1 h at room temperature, respectively. Protein bands were visualized with an enhanced chemiluminescence (ECL) kit (Pierce, Rockford, IL). […]

tubulin = assay: In vitro tubulin polymerization assay; assay type: biochemical; conditions: 40 µM, OD340
Protocol: In vitro tubulin polymerization assay was performed as described previously.

HUVEC = HUVEC tube formation assay; assay type: cell-based, human
BGC-823 xenograft = assay: Xenograft efficacy study; assay type: in vivo, BALB/C nu/nu nude mice
Protocol: (§2) Tumor cells were inoculated into the right flank of BALB/C nu/nu female nude mice (5∼6 weeks, 16∼18 g, obtained from Sino-British SIPPR/BK Lab. Animal Ltd, Shanghai, China) at optimal density based on our in-house validation study. After the tumor was established and reached 100∼150 mm^3, the mice were randomized into ten mice per group and received treatment according to the schedule. The tumor growth was recorded three times a week with the measurement of length (L) and width (W) by caliper, and calculated as tumor volume (TV, mm^3) = 0.5*L*W*W (mm). […] The tumor regression of individual mouse was defined - the tumor volume at the end was less than the tumor volume when treatment was initiated.

GC and HCC xenografts = assay: Panel of GC and HCC xenografts, comparison with sorafenib; assay type: in vivo, BALB/C nu/nu nude mice
Protocol: as §2

[4] = tested on: human primary gastric tumor derived xenografts; assay: Three human GC primary tumor derived xenograft models (overall); assay type: in vivo, BALB/C nu/nu nude mice; conditions: three patient derived gastric xenografts, 25 mg/kg
Protocol: In human primary tumor models, fresh human gastric tumor tissues were directly implanted into nonobese diabetic and severe combined immune-deficient (NOD-SCID) mice within 5 hours post-surgery with 5 mm^3 fragments to establish primary tumor xenograft models. […] Treatment began when tumor volume reached 100∼150 mm^3. The tumor measurement and operation protocol was the same as cell line derived tumor model.

[5] = Single dose pharmacokinetic (SDPK) study; assay type: in vivo; conditions: for Oral BA: micronized API suspension; for clearance / Vd / half-life: plasma; for clearance / Vd: iv, 5 mg/kg, single dose; for Vd: read-out: Vdss; for half-life: iv 5 mg/kg
Protocol: Blood samples were collected by retro-orbital puncture at pre-dose and 0.033, 0.083, 0.25,0.5, 1, 2, 4, 6, 8, and 24 hours post-dose. The plasma samples and the dose formulation were stored at −20°C until bioanalysis. The data acquisition and control system were created using Analyst 1.4 software from ABI Inc. The concentrations in plasma below the limit of quantitation (LOQ = 1 ng/mL) were designated as zero. […] For rat, dog and monkey SDPK, the blood samples were collected from jugular vein puncture.

[6] = Metabolite profile in pooled liver microsomes; assay type: in vitro ADME
Protocol: Supplementary file pone.0065264.s005.doc: Table S4 Metabolite profiles in pooled liver microsomes. Pooled liver microsomes were incubated with R1498 and the metabolites were identified to predict the most close species to human. (DOC) Click here for additional data file.

[7] = tested on: cyclin-dependent kinase 2 (CDK2); set-up: method as in PMID 20832307; conditions: previously identified; cited from earlier work

Compound: COc1ccc2c(c1)C(c1ccccc1Cl)=Nc1c(n[nH]c1C)N2 [R1498]
- IC50 [1]: 7.55 µM
- IC50 [2]: 7.81 µM
- IC50 [3]: 30.1 µM
- phospho-histone H3 (S10) (immunofluorescence) (phospho-histone H3 (S10); SGC-7901, 5 µM, 24 h): decreased sharply
- phosphorylation of phospho-histone H3 (S10) (western blot) (phospho-histone H3 (S10); SGC-7901 synchronized with nocodazole, various concentrations, acute treatment): decreased in a concentration-dependent manner
- effect on microtubule polymerization (tubulin): neither stabilized nor destabilized microtubule polymerization
- HUVEC proliferation under tube formation treatment condition (HUVEC; 8 hr exposure, data not shown): didn’t affect HUVEC proliferation
- tube formation (HUVEC; HUVEC on Matrigel, 3 µM, 8 h, vs DMSO): formed fewer intact tube meshes
- Final TGI% (BGC-823 xenograft; BGC-823, 25 mg/kg twice a day per oral gavage, day of study termination (Table S2)): 94%
- Body weight changes% (BGC-823 xenograft; BGC-823, 25 mg/kg twice a day per oral gavage, before vs after treatment): 2%
- Tumor Regression (BGC-823 xenograft; BGC-823, 25 mg/kg twice a day per oral gavage, mice with regression/group): 0/10
- Final TGI% (BGC-823 xenograft; BGC-823, 6.25 mpk, bid, PO): 78%
- Final TGI% (BGC-823 xenograft; BGC-823, 12.5 mpk, bid, PO): 88%
- Final TGI% (BGC-823 xenograft; BGC-823, 25 mpk, bid, PO (Table S3)): 94%
- tumor growth inhibition (GC and HCC xenografts; all test models (GC and HCC xenografts)): > 80%
- TGI% over TGI% of sorafenib (GC and HCC xenografts; gastric cancer xenografts, same schedule): 2–12%
- TGI% more than TGI% of sorafenib (GC and HCC xenografts; hepatocarcinoma xenografts, same schedule): 10–19%
- Final TGI% [4]: 73.6 ∼ 91.6%
- regression rates [4]: 10–30% and 10∼30%
- Oral BA ([5]; Dog, 50-100 mg/kg): 32-45 (50-100 mg/kg) %
- Oral BA ([5]; Monkey, 12.5 mg/kg): 4 (12.5 mg/kg) %
- Oral BA ([5]; Rat, 25-400 mg/kg): 9-44 (25-400 mg/kg) %
- clearance ([5]; Dog): 1.9 mL/min/kg
- Vd ([5]; Dog): 2.7 L/kg
- clearance ([5]; Monkey): 25.3 mL/min/kg
- Vd ([5]; Monkey): 2.1 L/kg
- clearance ([5]; Rat): 5.6 mL/min/kg
- Vd ([5]; Rat): 1.6 L/kg
- half-life ([5]; Dog): 16.8 h
- half-life ([5]; Monkey): 1.5 h
- half-life ([5]; Rat): 3.2 h
- Parent (M0) ([6]; Dog pooled liver microsomes): 99.0
- Total M% ([6]; Dog pooled liver microsomes): 1.0%
- Parent (M0) ([6]; Human pooled liver microsomes): 91.9
- Total M% ([6]; Human pooled liver microsomes): 8.1%
- Parent (M0) ([6]; Monkey pooled liver microsomes): 43.3
- Total M% ([6]; Monkey pooled liver microsomes): 56.7%
- Parent (M0) ([6]; Mouse pooled liver microsomes): 94.8
- Total M% ([6]; Mouse pooled liver microsomes): 5.2%
- Parent (M0) ([6]; Rat pooled liver microsomes): 90.8
- Total M% ([6]; Rat pooled liver microsomes): 9.2%
- CDK2 inhibition [7]: weak
